Source: patent US8741951B2, “Non-steroidal compounds for androgen receptor modulation” (CNR—Consiglio Nazionale delle Ricerche, priority 2009, dated 2014)
“Also recorded” adds a separate entry of the source.

Assays:
[1] = test system: LNCaP-AR cells; experiment: SRB in vitro chemosensitivity assay, LNCaP-AR; assay type: cell-based
Protocol: (§1) The cell lines were maintained as a monolayer at 37° C. and subcultured weekly. Culture medium was composed of RPMI 1640 supplemented with 10% fetal calf serum and 1% glutamine (Mascia Brunelli s.p.a., Milan, Italy). Cells were used in the exponential growth phase in all the experiments.
(§2) Compounds were dissolved in acetone or DMSO (AITES) ([…]) and stored at −20° C. The cell culture containing acetone at the highest concentration was used as the control.
(§3) Sulforhodamine B (SRB) assay was used according to the method by Skehan et al. (JNCI, 1990). Briefly, cells were collected by trypsinization, counted and plated at a density of 5,000 cells/well in 96-well flat-bottomed microtiter plates (100 μl of cell suspension/well). In the chemosensitivity assay, experiments were run in octuplicate, and each experiment was repeated three times. The optical density (OD) of cells was determined at a wavelength of 490 nm by a colorimetric plate reader.
(§4) If ODtreated is above ODzero, treatment has induced a cytostatic effect, whereas if ODtreated is below ODzero, cell killing has occurred. The ODzero depicts the cell number at the moment of drug addition, the ODcontrol reflects the cell number in untreated wells and the ODtreated reflects the cell number in treated wells on the day of the assay.
(§5) FIGS. 2-11 show the cytotoxic activity of the derivative compounds of the invention on the LNCaP and LNCaP-AR cell lines. The authors examined the antitumour activity of the compounds for which the synthesis is described above, in the hormone-sensitive prostate cancer cell line LNCaP and in its derivative cell line LNCaP-AR, expressing high level of AR and with hormone refractory prostate cancer (HRPC) features. The novel compounds were tested at the increasing concentrations of […], 0.2, 2.0, and 20.0 μM. The highest dose used was chosen on the basis of the clinically achievable peak plasma concentration reported in the literature for bicalutamide (Cockshott I D. Clin Pharmacokinet. 2004; 43(13): 855-78). After 144-hr exposure time the cytotoxic effect of the molecules was calculated according to the method of Monks et al. (Monks A, Scudiero D, Skehan P, et al. Feasibility of a high-flux anticancer drug screen using a diverse panel of cultured human tumor cell lines. J Natl Cancer Inst. 1991; 83: 757-66.)

[2] = test system: human hepatoblastoma cell line HepG2; experiment: Cytotoxic activity on HepG2 (hepato-toxicity); assay type: cell-based; conditions: HepG2, up to highest concentration tested
Protocol: as §3, §4
FIG. 27-36 show the cytotoxic activity of the drugs on the human hepatoblastoma cell line HepG2. The authors evaluated in vitro the potential hepato-toxicity of some of the novel compounds on HepG2 cell line, a human hepatoblastoma cell line that retains the specialized function of normal hepatocytes [Knowles B B, Howe C C, Aden D P. Human hepatocellular carcinoma cell lines secretes the major plasma proteins and hepatitis B surface antigen. Science 1980, 209:497-499; Aden D P, Vogel A, Plortkin S, Damjanov I, Knowles B B. Controlled synthesis of HBS Ag in a differentiated human liver carcinoma-derived cell line. Nature, 1979, 282:615-616].

[3] = test system: normal stem cells derived from human peripheral blood stem cells; experiment: Colony-forming cell assay (GM-CFU); assay type: cell-based
Protocol: The colony-forming cell assay was used as previously described [Matta M R, Mangianti S, Rizzi S, Ratta M, Campanini E, Fortuna A, et al. Pharmacological purging of minimal residual disease from peripheral blood stem cell collections of acute myloblastic leukaemia patients: preclinical studies. Exp Hematol 1997; 25:1261-1269]. In brief, for each molecule, 5×10^4 cells were plated in duplicate in a complete culture medium (MethoCult H4434, StemCell Technologies, Vancouver, Canada) containing different concentrations (0.2, 2, and 20 μmol/l) of the compound. After 14 days of incubation in a humidified atmosphere of 5% CO2 at the temperature of 37° C., granulocyte macrophage colony-forming unit (GM-CFU) aggregates of more than 50 cells were counted. Control cells were incubated under the same conditions but in drug-free medium.

[4] = test system: human CW22-RV1 prostate carcinoma xenograft; experiment: In vivo antitumor activity, CW22-RV1 xenograft s.c. in nude mice
Protocol: CW-22Rv1, a human prostate carcinoma epithelial cell line were purchased from ATCC.
In vivo antitumor activity experiments with the compound (R)-XXIII-6 were carried out using female athymic Swiss nude mice 8 to 10 weeks of age (Charles River, Calco, Italy). Mice were maintained in laminar flow rooms, keeping temperature and humidity constant. Mice had free access to food and water. Experiments were approved by the Ethics Committee for Animal Experimentation of the Istituto Nazionale Tumori (Milan, Italy).
Human CW22-RV1 cells, a human prostate carcinoma epithelial cell line, derived from a xenograft that was serially propagated in mice after castration-induced regression and relapse of the parental, androgen-dependent CWR22 xenograft, were used for in vivo experiments. The prostate carcinoma cell line were inoculated by subcutaneous injection (s.c.) in the right flank of nude mice, at day 0. Treatment started at day 3 when tumor weights were around 60 mg.
The efficacy of the drug treatment was assessed as: (a) TWI % in treated versus control mice, calculated as TWI=100−(mean TW treated/mean TW control×100).
The toxicity of the drug treatment was assessed as: (a) BWL calculated as BWL=100−(mean BWdayx/mean BWday1×100), where day 1 is the first day of treatment and day x is any day after (mice were weighed twice/week throughout the experimental frame and in the table 3 the maximum BWL value was reported); and (b) lethal toxicity, i.e., any death in treated groups occurring before any control death (mice were inspected daily for mortality).

[5] = test system: DU145 cell line; experiment: SRB cytotoxicity, DU145; assay type: cell-based, human; conditions: DU145 (no AR), 144 h, up to 20 μM
Protocol: (§6) FIGS. 16-25: cytotoxic effect of compounds (R)-XXIII-2, (R)-XXIII-3, (R)-XXIII-4, (R)-XXIII-5, (R)-XXIII-6, (R)-XXIII-7, (R)-XXIII-8, (R)-XXIII-9, (R)-XXIII-10, (R)-XXIV-9 on PC-3 and DU-145 cell lines at different concentration (0.02, 0.2, 2, 20 μM) after 144 h exposure. On the x-axis is reported the concentration, while on the y-axis is reported the inhibition of the net growth (% net growth).
as §3, §4

[6] = test system: PC-3 cell line; experiment: SRB cytotoxicity, PC-3; assay type: cell-based, human; conditions: PC-3 (no AR), 144 h, up to 20 μM
Protocol: as §6, §3, §4

[7] = test system: LNCaP cells; experiment: SRB in vitro chemosensitivity assay, LNCaP; assay type: cell-based
Protocol: as §1, §2, §3, §4, §5

`N#Cc1ccc(NC(=O)[C@](O)(Cc2cccs2)CS(=O)(=O)c2ccc(F)cc2)cc1C(F)(F)F` [(R)-XXIII-6] was tested, and the GI50 ([1]; Homo sapiens, LNCaP/AR, 144 h) was 9.8 µM, the LC50 ([1]; LNCaP-AR cells, 144 h exposure, up to 20 μM) was “n.r” and the “cytotoxic effect (cytostatic / cytocidal), in words” value ([1]; LNCaP-AR, 144 h, up to 20 μM) was “suppress completely the cell growth”. For the same compound, the “hepato-toxicity, in words” value [2] was “did not display toxicity”, the “inhibition of clonogenic growth of normal stem cells (mielotoxicity), in words” value ([3]; 0.2, 2, 20 μmol/l, 14 days) was “does not seem to exert significant mielotoxicity; also recorded: weak cytostatic activity” and the GI50 ([3]; hematopoietic precursors, highest concentration tested 20 μmol/l) was “not being able to reach GI50 value”. For the same compound, the “Tox/Tot (deaths in treated mice before any control death)” value ([4]; 100 mg/Kg p.o.) was 0/6, the “day of Max TWI % (day after tumor inoculum)” value ([4]; 100 mg/Kg p.o.) was 23 days and the “Max TWI %” value ([4]; 100 mg/Kg p.o., (qdx5/wx2w) × 2 cycles) was 45%. For the same compound, the “Max BWL (maximum body weight loss in percentage)” value ([4]; 100 mg/Kg p.o., during drug treatment) was 2%, the “tolerability, in words” value ([4]; 100 mg/kg p.o.) was “generally well tolerated, with no signs of acute or delayed toxicity” and the “antitumor activity / tumor weight, in words” value ([4]; 100 mg/kg p.o., versus untreated mice) was “significant reduction in tumor weight; also recorded: effective in slowing tumor growth”. The “cytotoxic activity, in words” value [5] was “negligible cytotoxic activity”, the “cytotoxic activity, in words” value [6] was “negligible cytotoxic activity” and the GI50 ([7]; Homo sapiens, LNCaP, 144 h) was 8.9 µM. For the same compound, the LC50 ([7]; LNCaP cells, 144 h exposure, up to 20 μM) was “n.r” and the “cytotoxic effect (cytostatic / cytocidal), in words” value ([7]; LNCaP, 144 h, up to 20 μM) was “suppress completely the cell growth”.
